Where “and” joins values, the source holds several entries; their conditions need not be identical. Identical values can stand only once.
Key:
[1] = 101.33 kPa, Liquid, Vibrating tube method
[2] = xn = mol fraction of the nth substance listed; conditions: 101 kPa, Liquid, Vibrating tube method

CCCCCCCC[N+](C)(CCCCCCCC)CCCCCCCC.O=S(=O)([N-]S(=O)(=O)C(F)(F)F)C(F)(F)F
[1]
Conditions	mass density [kg/m3]
298.15 K	1106.9
303.15 K	1103.2
313.15 K	1095.7

CCCCCCCC[N+](C)(CCCCCCCC)CCCCCCCC.O=S(=O)([N-]S(=O)(=O)C(F)(F)F)C(F)(F)F + CC(C)O
mass density [kg/m3], [2]
Conditions	x1 = 0.053	x1 = 0.1	x1 = 0.2045	x1 = 0.2841	x1 = 0.3934	x1 = 0.4824	x1 = 0.5896	x1 = 0.7066	x1 = 0.7967	x1 = 0.896
298.15 K	876.9	932.6	1004.9	1033.8	1056.2	1067.6	1078.9	1089	1095.2	1100.5
303.15 K	873	928.9	1001.5	1030.3	1052.6	1063.9	1075.2	1085.4	1091.6	1096.9
313.15 K	865.1	921.3	994.7	1023.3	1045.1	1056.6	1068.1	1078.3	1084.4	1089.5

CCCCCCCC[N+](C)(CCCCCCCC)CCCCCCCC.O=S(=O)([N-]S(=O)(=O)C(F)(F)F)C(F)(F)F + CCC(C)O
mass density [kg/m3], [2]
Conditions	x1 = 0.0654	x1 = 0.1397	x1 = 0.2623	x1 = 0.3282	x1 = 0.4054	x1 = 0.5045	x1 = 0.6051	x1 = 0.7046	x1 = 0.808	x1 = 0.9067
298.15 K	894.2	956.2	1013.8	1033.4	1050.6	1066.7	1078.5	1087.3	1094.6	1100.8
303.15 K	890.3	952.7	1010.2	1029.7	1046.9	1063	1074.8	1083.7	1091	1097.2
313.15 K	882.6	945.3	1003.1	1022.5	1039.7	1055.7	1067.6	1076.5	1083.9	1090

CCCCCCCC[N+](C)(CCCCCCCC)CCCCCCCC.O=S(=O)([N-]S(=O)(=O)C(F)(F)F)C(F)(F)F + CCCCO
mass density [kg/m3], [2]
Conditions	x1 = 0.0654	x1 = 0.1421	x1 = 0.2623	x1 = 0.3284	x1 = 0.4437	x1 = 0.5343	x1 = 0.6385	x1 = 0.7397	x1 = 0.8432	x1 = 0.9195
298.15 K	898.1	962	1018	1037.3	1060.4	1072.8	1083.4	1091	1097.9	1102.1
303.15 K	894.3	958.6	1014.6	1033.9	1056.8	1069.1	1079.8	1087.4	1094.2	1098.6
313.15 K	887.2	951.8	1007.6	1026.9	1049.7	1062.1	1072.7	1080.5	1087.2	1091.6

CCCCCCCC[N+](C)(CCCCCCCC)CCCCCCCC.O=S(=O)([N-]S(=O)(=O)C(F)(F)F)C(F)(F)F + CCOC(C)=O
mass density, [2]
Conditions	x1 = 0.1167	x1 = 0.2291	x1 = 0.4417	x1 = 0.5433	x1 = 0.7037	x1 = 0.7993	x1 = 0.9209
298.15 K	848.1 kg/m3 and 989.9 kg/m3	1034.5 kg/m3	1074.7 kg/m3	1085.4 kg/m3	1096.7 kg/m3	1101.3 kg/m3	1105.4 kg/m3
303.15 K	984.9 kg/m3	1029.5 kg/m3	1069.6 kg/m3	1080.3 kg/m3	1091.5 kg/m3	1096.2 kg/m3	1100.5 kg/m3
313.15 K	974.9 kg/m3	1020.9 kg/m3	1062.5 kg/m3	1073.4 kg/m3	1085 kg/m3	1089.6 kg/m3	1062.5 kg/m3 and 1094.1 kg/m3

CCC(C)O (centres undefined) [butan-2-ol] + CCOC(C)=O
mass density [kg/m3], [2]
Conditions	298.15 K	303.15 K	313.15 K
x1 = 0.0603	888.5	882.5	870.2
x1 = 0.1109	883.2	877.6	865.6
x1 = 0.1511	878.9	873.2	861.4
x1 = 0.1998	873.8	868.6	857.1
x1 = 0.2502	868.8	863.5	852.5
x1 = 0.302	863.6	858.4	847.5
x1 = 0.3489	858.9	853.9	843.2
x1 = 0.3988	854.1	849.2	838.7
x1 = 0.4506	849.4	844.4	834.3
x1 = 0.5011	844.6	839.9	829.9
x1 = 0.5631	839	834.3	824.5
x1 = 0.601	835.6	830.9	821.2
x1 = 0.6501	831.1	826.8	817.3
x1 = 0.7032	826.5	822.4	812.9
x1 = 0.752	822.5	818.3	808.9
x1 = 0.8012	818.4	814	805.1
x1 = 0.8498	814.6	810.1	801.4
x1 = 0.9028	810.3	805.8	797.4
x1 = 0.9519	806.7	802.4	794.4

CCOC(C)=O [ethyl acetate] + CCCCO
mass density [kg/m3], [2]
Conditions	298.15 K	303.15 K	313.15 K
x2 = 0.0904	886.5	880.4	869.6
x2 = 0.1337	882.3	876.8	866
x2 = 0.2525	871.5	866.7	856.6
x2 = 0.3723	860.7	856.6	846.8
x2 = 0.4807	851	847.5	838
x2 = 0.5955	840.9	838	828.8
x2 = 0.7032	831.5	828.8	820.1
x2 = 0.8009	823	820.6	812.3
x2 = 0.8916	815.1	813	805
x2 = 0.9641	808.6	806.7	799.4
x2 = 0.9795	807.3	805.3	798.1
